ChEMBL document CHEMBL6109114, “Design, synthesis, and biological evaluation of 4-(2-fluorophenoxy)pyridine derivatives as novel FLT3-ITD inhibitors” (Eur J Med Chem, 2025)

Key:
[1] = system: BaF3; assay: Antiproliferative activity against wild type mouse BaF3 cells assessed as inhibition of cell growth measured after 3 days by celltiter-glo luminescent cell viability assay; format: functional, cell-based; settings: BaF3, 72 h
[2] = system: BaF3; assay: Antiproliferative activity against mouse BaF3 cells harbouring FLT3-ITD assessed as inhibition of cell growth measured after 3 days by celltiter-glo luminescent cell viability assay; format: functional, cell-based; settings: BaF3, 72 h
[3] = system: BaF3; assay: Antiproliferative activity against mouse BaF3 cells harbouring VEGFR2 assessed as inhibition of cell growth measured after 3 days by celltiter-glo luminescent cell viability assay; format: functional, cell-based; settings: BaF3, 72 h
[4] = system: MOLM-13; assay: Antitumor activity against human MOLM-13 xenografted in male nude mouse assessed as tumor growth inhibition at 20 mg/kg, po administered once daily for 14 days by vernier caliper method relative to control; format: functional; settings: MOLM-13, 336 h, time 14 day, read-out: TGI
[5] = system: MOLM-13; assay: Induction of apoptosis in human MOLM-13 cells assessed as viable cells at 0.1 uM incubated for 48 hrs by Annexin V-FITC/PI staining based flow cytometry analysis (reference value: 91.9%); format: functional; settings: read-out: Activity
[6] = system: MOLM-13; assay: Induction of cell cycle arrest in human MOLM-13 cells assessed as accumulation of cells at S phase at 0.1 uM incubated for 48 hrs (reference value: 41.6%); format: functional
[7] = system: MOLM-13; assay: Induction of apoptosis in human MOLM-13 cells assessed as late apoptotic cells at 0.1 uM incubated for 48 hrs by Annexin V-FITC/PI staining based flow cytometry analysis (reference value: 3.10%); format: functional
[8] = system: MOLM-13; assay: Induction of cell cycle arrest in human MOLM-13 cells assessed as accumulation of cells at G1 phase at 0.1 uM incubated for 48 hrs (reference value: 40.3%); format: functional
[9] = system: MOLM-13; assay: Induction of apoptosis in human MOLM-13 cells assessed as necrotic cells at 0.1 uM incubated for 48 hrs by Annexin V-FITC/PI staining based flow cytometry analysis (reference value: 0.077%); format: functional
[10] = system: MOLM-13; assay: Induction of cell cycle arrest in human MOLM-13 cells assessed as accumulation of cells at G2 phase at 0.1 uM incubated for 48 hrs (reference value: […]); format: functional
[11] = system: MOLM-13; assay: Induction of apoptosis in human MOLM-13 cells assessed as early apoptotic cells at 0.1 uM incubated for 48 hrs by Annexin V-FITC/PI staining based flow cytometry analysis (reference value: 4.93%); format: functional

Structure (SMILES) | IC50 [1] | IC50 [2] | IC50 [3] | also measured
Cc1cc(=O)n(-c2cc(Cl)ccc2F)nc1C(=O)Nc1ccc(Oc2ccnc(NC(=O)N3CCC(C(C)(C)O)CC3)c2)c(F)c1 | > 10000 nM | 1670 nM | 2440 nM | –
Cc1cc(=O)n(-c2cccc(Cl)c2)nc1C(=O)Nc1ccc(Oc2ccnc(NC(=O)N3CC(O)C3)c2)c(F)c1 | 9200 nM | 350 nM | 440 nM | –
Cc1cc(F)ccc1-n1nc(C(=O)Nc2ccc(Oc3ccnc(NC(=O)N4CC(O)C4)c3)c(F)c2)c(C)cc1=O | > 10000 nM | 770 nM | 1250 nM | –
Cc1cc(=O)n(-c2ccc(OC(F)(F)F)cc2)nc1C(=O)Nc1ccc(Oc2ccnc(NC(=O)N3CC(O)C3)c2)c(F)c1 | > 10000 nM | 3910 nM | – | –
Cc1cc(=O)n(-c2ccc(F)cc2)nc1C(=O)Nc1ccc(Oc2ccnc(NC(=O)N3CC(O)C3)c2)c(F)c1 | > 10000 nM | 490 nM | 770 nM | –
Cc1cc(=O)n(-c2ccc(S(C)(=O)=O)cc2)nc1C(=O)Nc1ccc(Oc2ccnc(NC(=O)N3CC(O)C3)c2)c(F)c1 | > 10000 nM | > 10000 nM | – | –
Cc1cc(=O)n(-c2cc(Cl)ccc2F)nc1C(=O)Nc1ccc(Oc2ccnc(NC(=O)NC3CC3)c2)c(F)c1 | > 10000 nM | 7810 nM | 5020 nM | –
Cc1cc(=O)n(-c2cc(Cl)ccc2F)nc1C(=O)Nc1ccc(Oc2ccnc(NC(=O)N3CCC(O)C3)c2)c(F)c1 (stereo not given) | > 10000 nM | 600 nM | 1290 nM | –
Cc1cc(=O)n(-c2ccc(F)c(Cl)c2)nc1C(=O)Nc1ccc(Oc2ccnc(NC(=O)N3CC(O)C3)c2)c(F)c1 | > 10000 nM | 400 nM | 540 nM | –
Cc1cc(=O)n(-c2ccccc2F)nc1C(=O)Nc1ccc(Oc2ccnc(NC(=O)N3CC(O)C3)c2)c(F)c1 | > 10000 nM | 670 nM | 850 nM | –
Cc1cc(=O)n(-c2ccc(C#N)cc2)nc1C(=O)Nc1ccc(Oc2ccnc(NC(=O)N3CC(O)C3)c2)c(F)c1 | > 10000 nM | > 10000 nM | – | –
Cc1cc(=O)n(-c2cc(Cl)c(F)c(Cl)c2)nc1C(=O)Nc1ccc(Oc2ccnc(NC(=O)N3CC(O)C3)c2)c(F)c1 | > 10000 nM | 490 nM | 1450 nM | –
Cc1cc(=O)n(-c2ccc(Cl)cc2)nc1C(=O)Nc1ccc(Oc2ccnc(NC(=O)N3CC(O)C3)c2)c(F)c1 | > 10000 nM | 610 nM | 720 nM | –
COc1cc(F)ccc1-n1nc(C(=O)Nc2ccc(Oc3ccnc(NC(=O)N4CC(O)C4)c3)c(F)c2)c(C)cc1=O | > 10000 nM | 850 nM | 1480 nM | –
Cc1cc(=O)n(-c2cc(Cl)ccc2F)nc1C(=O)Nc1ccc(Oc2ccnc(NC(=O)N3CCC(C)CC3)c2)c(F)c1 | > 10000 nM | 4160 nM | 5510 nM | –
Cc1cc(=O)n(-c2ccccc2)nc1C(=O)Nc1ccc(Oc2ccnc(NC(=O)N3CC(O)C3)c2)c(F)c1 | > 10000 nM | 700 nM | 1160 nM | –
Cc1cc(=O)n(-c2cc(Cl)ccc2F)nc1C(=O)Nc1ccc(Oc2ccnc(NC(=O)N3CCC(N4CCN(C)CC4)CC3)c2)c(F)c1 | 8500 nM | 800 nM | 1190 nM | –
COC1CCN(C(=O)Nc2cc(Oc3ccc(NC(=O)c4nn(-c5cc(Cl)ccc5F)c(=O)cc4C)cc3F)ccn2)C1 (stereo not given) | > 10000 nM | 520 nM | 1120 nM | –

Structure (SMILES) | IC50 [1] | IC50 [2] | IC50 [3] | also measured
Cc1cc(=O)n(-c2cc(Cl)ccc2F)nc1C(=O)Nc1ccc(Oc2ccnc(NC(=O)N3CCC(C)(O)C3)c2)c(F)c1 (stereo not given) | 7800 nM | 610 nM | 1010 nM | –
Cc1cc(=O)n(-c2ccc(Cl)c(F)c2)nc1C(=O)Nc1ccc(Oc2ccnc(NC(=O)N3CC(O)C3)c2)c(F)c1 | > 10000 nM | 560 nM | 790 nM | –
Cc1cc(=O)n(-c2ccc(C(F)(F)F)cc2)nc1C(=O)Nc1ccc(Oc2ccnc(NC(=O)N3CC(O)C3)c2)c(F)c1 | > 10000 nM | 990 nM | 1720 nM | –
COc1cc2nccc(Oc3ccc(NC(=O)N/N=C/c4cn(-c5ccccc5OC)nn4)cc3)c2cc1OC | – | 5820 nM | 8070 nM | –
COc1ccc(-n2nc(C(=O)Nc3ccc(Oc4ccnc(NC(=O)N5CC(O)C5)c4)c(F)c3)c(C)cc2=O)cc1 | > 10000 nM | 1130 nM | 4210 nM | –
CCN(CC)CCNC(=O)c1c(C)[nH]c(/C=C2\C(=O)Nc3ccc(F)cc32)c1C [SUNITINIB] | – | – | – | inhibition in vivo at 20 mg/kg [4]: 73.2%
Cc1cc(-n2nc(C(=O)Nc3ccc(Oc4ccnc(NC(=O)N5CC(O)C5)c4)c(F)c3)c(C)cc2=O)ccc1F | > 10000 nM | 630 nM | 700 nM | –
Cc1cc(=O)n(-c2cc(Cl)ccc2F)nc1C(=O)Nc1ccc(Oc2ccnc(NC(=O)NC3CCOCC3)c2)c(F)c1 | > 10000 nM | 6300 nM | 2050 nM | –
Cc1cc(=O)n(-c2ccc(F)cc2F)nc1C(=O)Nc1ccc(Oc2ccnc(NC(=O)N3CC(O)C3)c2)c(F)c1 | > 10000 nM | 550 nM | 1410 nM | –
Cc1cc(=O)n(-c2ccc(I)cc2)nc1C(=O)Nc1ccc(Oc2ccnc(NC(=O)N3CC(O)C3)c2)c(F)c1 | > 10000 nM | 4300 nM | – | –
Cc1cc(=O)n(-c2cc(F)ccc2Cl)nc1C(=O)Nc1ccc(Oc2ccnc(NC(=O)N3CC(O)C3)c2)c(F)c1 | > 10000 nM | 1880 nM | 5320 nM | –
Cc1ccc(-n2nc(C(=O)Nc3ccc(Oc4ccnc(NC(=O)N5CC(O)C5)c4)c(F)c3)c(C)cc2=O)cc1 | > 10000 nM | 1520 nM | 2010 nM | –
Cc1cc(=O)n(-c2ccc(F)c(F)c2)nc1C(=O)Nc1ccc(Oc2ccnc(NC(=O)N3CC(O)C3)c2)c(F)c1 | > 10000 nM | 470 nM | 580 nM | –
Cc1cc(=O)n(-c2ccc(Br)cc2)nc1C(=O)Nc1ccc(Oc2ccnc(NC(=O)N3CC(O)C3)c2)c(F)c1 | > 10000 nM | 1380 nM | 3070 nM | –
Cc1cc(=O)n(-c2cc(F)cc(Cl)c2)nc1C(=O)Nc1ccc(Oc2ccnc(NC(=O)N3CC(O)C3)c2)c(F)c1 | > 10000 nM | 730 nM | 1040 nM | –
CCc1nc(C(N)=O)c(Nc2ccc(N3CCC(N4CCN(C)CC4)CC3)c(OC)c2)nc1NC1CCOCC1 [GILTERITINIB] | – | 130 nM | – | –
Cc1cc(=O)n(-c2ccccc2Cl)nc1C(=O)Nc1ccc(Oc2ccnc(NC(=O)N3CC(O)C3)c2)c(F)c1 | > 10000 nM | 1870 nM | 2960 nM | –
CNC(=O)c1cc(Oc2ccc(NC(=O)Nc3ccc(Cl)c(C(F)(F)F)c3)cc2)ccn1 [SORAFENIB] | – | 100 nM | 18 nM | viability at 0.1 µM [5]: 25.7%; Activity [6]: 35.4%; Activity [7]: 47%; Activity [8]: 62.9%; Activity [9]: 0.66%; Activity [10]: 0%; Activity [11]: 26.7%
